Patent US20080287377A1, “Composition Based on Triethyl Citrate for the Prevention of Enzymatic Hydrolysis of Triglycerides” (priority 2005, published 2008)
Structures can show the parent of a compound that is named as a salt.

Target: T1, porcine lipase (Sus scrofa, UniProt P00591)
T1 sequence (P00591 1-450): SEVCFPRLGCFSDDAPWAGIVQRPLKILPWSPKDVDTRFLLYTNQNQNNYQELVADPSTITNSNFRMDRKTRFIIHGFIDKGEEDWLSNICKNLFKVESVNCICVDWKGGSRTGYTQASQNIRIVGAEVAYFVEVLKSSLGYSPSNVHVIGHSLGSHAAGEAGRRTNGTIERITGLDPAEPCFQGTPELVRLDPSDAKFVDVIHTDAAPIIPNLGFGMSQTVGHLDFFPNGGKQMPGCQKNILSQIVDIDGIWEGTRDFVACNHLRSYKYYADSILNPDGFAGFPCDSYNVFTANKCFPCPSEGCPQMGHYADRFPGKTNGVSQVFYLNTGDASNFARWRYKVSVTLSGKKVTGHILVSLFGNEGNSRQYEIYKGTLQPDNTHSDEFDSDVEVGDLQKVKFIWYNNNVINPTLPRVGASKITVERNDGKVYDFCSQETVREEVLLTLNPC
Test: Inhibition of the lyses of triglycerides (olive oil) by porcine lipase, colorimetric test of released fatty acids
Assay type: biochemical
Details: for Absorbance Mean: 37° C., read at 546 nm
Protocol: The inhibition of the lyses of triglycerides in the presence of porcine lipase was evaluated by analysing the released fatty acids using a colorimetric test.
The test consists in two distinct phases, one enzymatic reaction test which enables the lyses of triglycerides to leave the olive oil in the presence of porcine lipase and, successively, a colorimetric essay to determine the released fatty acids formed.
The porcine lipase, in the presence of the substrata (olive oil) and in opportune incubation conditions, catalyzes the following reaction:
Triglycerides+H2O→Diglycerides+Fatty acids
The dose of fatty acids allows indirect evaluation of the enzymatic activity and the lyses of triglycerides.
To evacuate the inhibition activity of the substance being analysed, three different concentrations of the substance under examination (5%, 1% and 0.5% in water) were tested at two different times (15 and 30 minutes).
In order to allow complete solubility, the 5% concentration was left at room temperature for 72 hours.
The porcine lipase was dissolved in deionised water at 4° C. just before use at the concentrations of 2000 U/ml. As a source of triglycerides olive oil was used. The buffer used for the reaction is Tris HCl 200 mM, pH=7.7 at 37° C. The test was conducted in the presence and in the absence of substance to be tested at different concentrations.
The following reagents are incubated at 37° C.: deionised water (150 μL), buffer (100 μL), olive oil (300 μL).
In the case of the sample (TEC 5%, 1% and 0.5%), the water was substituted with 150 μL of the solution to be tested.
Subsequent, the enzymatic solution (200 μL) was added and the reaction was allowed to develop for 30 and 15 minutes at a temperature of 37° C. On termination of the 15 and 30 minute periods, the reaction was blocked by adding 300 μL of ethanol at 95%.
50 μL of the solution containing the released fatty acids formed are used for the calorimetric dose, carried out using the special kit, that provides the necessary reagents to develop the reaction described below.
In the presence of the Acyl-CoA enzyme synthesis (AcylCS) and adenosin-5′-triphosphate (ATP) the released fatty acids are converted into acyl-CoA, adenosin-5′-monophosphate (AMP) and pyrophosphate. Acyl-CoA reacts with oxygen (O2) in the presence of Acyl coA oxidase (ACOD) forming 2,3-enoylcoenzymeA. The resulting H202 converts the 2,4,6-tribromo-3-hydroxy-benzoic acid (TBHB) and the 4-aminoantipyrine (4-AA) into a red stain in the presence of peroxidase (POD).
The samples are read at the 546 nm wave length, before and after the addition of ACOD and the reaction is conducted at room temperature.
Fatty acids+CoA+ATP→acyl-CoA+AMP+pyrophosphate
Acyl-CoA+O2→enoyl-coA+H202

[1] = TEC 0.5% in water, 15 min reaction
[2] = TEC 0.5% in water, 30 min reaction
[3] = TEC 1% in water, 15 min reaction
[4] = TEC 1% in water, 30 min reaction
[5] = TEC 5% in water, 15 min reaction
[6] = TEC 5% in water, 30 min reaction

In the case of CCOC(=O)CC(O)(CC(=O)OCC)C(=O)OCC [TEC, triethyl citrate], the “fatty acids reduction compared to control (%)” value (shortened to “fatty acids reduction … (%)”) [1] is reported as 18.04%, the “Absorbance Mean” value [1] is reported as 0.584 and the “fatty acids reduction … (%)” value [2] is reported as 11.10%. The “Absorbance Mean” value [2] was 0.084, the “fatty acids reduction … (%)” value [3] was 17.12% and the “Absorbance Mean” value [3] was 0.5905. For the same compound, the “fatty acids reduction … (%)” value [4] was 12.70%, the “Absorbance Mean” value [4] was 0.083 and the “fatty acids reduction … (%)” value [5] was 44.84%. The “Absorbance Mean” value [5] was 0.393, the “fatty acids reduction … (%)” value [6] was 81.50% and the “Absorbance Mean” value [6] was 0.018. For the same compound, the “protection of the triglycerides from the enzymatic hydrolysis exercised by the lipases” value (maximum percentage according to the method followed, from the absorbance values) was “up to 85%”.
